Measurements taken from patent US5134151A, “2-picolylamine derivatives” (J. Uriach & Cia, priority 1989, dated 1992).

Key:
[1] = system: hypotension induced by PAF; test: Inhibition of the Hypotensive Effect Induced by PAF in Normotense Rats; format: in vivo, Male Sprage Dawley rats; details: Rattus norvegicus, iv, anesthetized, compound i.v. 3 min before PAF 0.5 mcg/Kg i.v., average arterial pressure, read-out: CI50 (inhibition of PAF-induced hypotension)
Method: Male Sprage Dawley rats, of 180-220 g of weight, anesthetized with sodium pentobarbital (50 mg/Kg, i.p. 1 mL/100 g) have been used. In order to measure the average arterial pressure, a polyethylene catheter is introduced into the carotid artery. The arterial pressure is recorded with the help of a transducer connected with a R611 Beckman polygraph. The tested compounds are administered through the femoral vein 3 min before the injection of PAF (0.5 mcg/Kg, i.v.).

[2] = system: platelet aggregation induced by PAF; test: Inhibition of Platelet Aggregation Induced by PAF (Born nephelometric technique, rabbit platelet rich plasma); format: cell-based, male New Zealand albino rabbits; details: PAF (C18) 16 nM final
Method: The blood is obtained by cardiac puncture of male New Zealand albino rabbits (between 2 and 2.5 Kg of weight) and coagulation is prevented by adding 1 part of 3.16% sodium citrate dihydrate in 9 parts of blood. The platelet rich plasma (PRP) is prepared by blood centrifugation at 250×g for 10 min. at 4° C. and it is diluted with platelet poor plasma (PPP) by additional centrifugation at 3000×g for 10 min. The amount of platelets is adjusted to 3×10^-5 /mm^3. the platelet aggregation induced by PAF (C18; prepared in our laboratory) (16 nM, final) is determined by the Born nephelometric technique (J. Physiol., 1962, 162, 67) using a aggregometer Chrono-log 500. The activities of the inhibitors are expressed as IC50, that is to say the concentration of the drug needed to inhibit the platelet aggregation by 50%.

[3] = Oryctolagus cuniculus, Platelet

Structure (SMILES) | ED50 [1] [mg/kg] | IC50 [2, 3] [µM] | IC50 [2] [µM]
CCCCCCCCCCCCCCCCCCOCCOCCOC(=O)N(Cc1cccc[n+]1CC)C(C)=O.[I-] [Compound 3, 2-(N-Acetyl-N-((2-(2-octadecyloxyethoxy)ethoxy)carbonyl)aminomethyl)-1-ethylpyridinium iodide] | 0.022 | 0.019 | –
CC[n+]1ccccc1CN(C(C)=O)C(=O)OCCOCCOC(=O)C(C)(C)C.[I-] [Compound 9, 2-(N-Acetyl-N-((2-(2-pivaloyloxyethoxy)ethoxy)carbonyl)aminomethyl)-1-ethylpyridinium iodide] | 5 | 1.5 | –
CCCCCCCCCCCCCCCCCNC(=O)OCCOCCOC(=O)N(Cc1cccc[n+]1CC)C(C)=O [Compound 12, 2-(N-Acetyl-N-((2-(2-heptadecylcarbamoyloxy)ethoxy)ethoxy)carbonyl)aminomethyl)-1-ethylpyridium chloride] | 0.067 | 0.027 | –
CCCCCCCCCCCCCCCCCNC(=O)OCCOCCOC(=O)NCc1cccc[n+]1CC.[I-] [Compound 13, 2-(N-((2-(2-(Heptadecylcarbamoyloxy)ethoxy)ethoxy)carbonyl)aminomethyl)-1-ethylpyridinium iodide] | 0.5 | 1.6 | –
CCCCCCCCCCCCCCCCCNC(=O)OCCOCCOC(=O)N(Cc1cccc[n+]1C)C(C)=O.[I-] [Compound 14, 2-(N-Acetyl-N-((2-(2-(heptadecylcarbamoyloxy)ethoxy)ethoxy)carbonyl)aminomethyl)-1-methylpyridinium iodide] | 0.13 | 0.054 | –
CCCCCCCCCCCCCCCCCNC(=O)OCCOCCOC(=O)N(Cc1cccc[n+]1CC)C(=O)OCC.[I-] [Compound 16, 2-(N-Ethoxycarbonyl-N-((2-(2-(heptadecylcarbamoyloxy)ethoxy)ethoxy)carbonyl)aminomethyl)-1-ethylpyridinium iodide] | 0.021 | 0.012 | –
CCCCCCCCCCCCCCCNC(=O)OCCOCCOC(=O)N(Cc1cccc[n+]1CC)C(C)=O.[I-] [Compound 19, 2-(N-Acetyl-N-((2-(2-(pentadecylcarbamoyloxy)ethoxy)ethoxy)carbonyl)aminomethyl)-1-ethylpyridinium iodide] | 0.041 | 0.019 | –
CCCCCCCCCCCCCCCNC(=O)OCCOCCOC(=O)N(Cc1cccc[n+]1CCC)C(C)=O.[I-] [Compound 20, 2-(N-Acetyl-N-((2-(2-(pentadecylcarbamoyloxy)ethoxy)ethoxy)carbonyl)aminomethyl)-1-propylpyridinium iodide] | 0.68 | 0.22 | –
CCCCCCCCCCCCCCCNC(=O)OCCOCCOC(=O)N(Cc1cccc[n+]1CC)C(=O)OCC.[I-] [Compound 22, 2-(N-Ethoxycarbonyl-N-((2-(2-(pentadecylcarbamoyloxy)ethoxy)ethoxy)carbonyl)aminomethyl)-1-ethylpyridinium iodide] | 0.032 | 0.027 | –
CCCCCCCCCCCCCCCNC(=O)OCCOCCOC(=O)N(Cc1cccc[n+]1CC)C(=O)OCC(C)C.[Cl-] [Compound 25, 2-(N-Isobutyloxycarbonyl-N-((2-(2-(pentadecylcarbamoyloxy)ethoxy)ethoxy)carbonyl)aminomethyl)-1-ethylpyridinium chloride] | 0.064 | 0.051 | –
CCCCCCCCCCCCCCCNC(=O)OCCCCCOC(=O)N(Cc1cccc[n+]1CC)C(C)=O.[I-] [Compound 31, 2-(N-Acetyl-N-((5-(pentadecylcarbamoyloxy)pentoxy)carbonyl)aminomethyl)-1-ethylpyridinium iodide] | 0.057 | 0.032 | –
CCCCCCCCCCCCCCCNC(=O)OCCSCCOC(=O)N(Cc1cccc[n+]1CC)C(C)=O.[I-] [Compound 37, 2-(N-Acetyl-N-((2-(2-(pentadecylcarbamoyloxy)ethylthio)ethoxy)carbonyl)aminomethyl)-1-ethylpyridinium iodide] | 0.044 | 0.0068 | –
CC[n+]1ccccc1CN(C(C)=O)C(=O)OCCOCCOC(=O)NCCCc1ccccc1.[I-] [Compound 40, 2-(N-Acetyl-N-((2-(2-(3-phenylpropylcarbamoyloxy)ethoxy)ethoxy)carbonyl)aminomethyl)-1-ethylpyridinium iodide] | 0.88 | 1.2 | –
CC[n+]1ccccc1CN(C(C)=O)C(=O)OCCOCCOC(=O)NCC1CCCCC1.[I-] [Compound 43, 2-(N-Acetyl-N-((2-(2-(cyclohexylmethylcarbamoyloxy)ethoxy)ethoxy)carbonyl)aminomethyl)-1-ethylpyridinium iodide] | 0.5 | 2 | –
CCCCCCCCCCCCCCCNC(=O)OCCOCCOCCOC(=O)N(Cc1cccc[n+]1CC)C(C)=O.[I-] [Compound 46, 2-(N-Acetyl-N-((2-(2-(2-(pentadecylcarbamoyloxy)ethoxy)ethoxy)ethoxy)carbonyl)aminomethyl)-1-ethylpyridinium iodide] | 0.028 | 0.012 | –
CCCCCCCCCCCCCCCCCNC(=O)OCCSCCOC(=O)N(Cc1cccc[n+]1CC)C(C)=O.[I-] [Compound 62, 2-(N-Acetyl-N-((2-(2-(heptadecylcarbamoyloxy)ethylthio)ethoxy)carbonyl)aminomethyl)-1-ethylpyridinium iodide] | 0.013 | – | 0.0044
CCCCCCCCCCCCCCCCCNC(=O)OCCSCCOC(=O)N(Cc1cccc[n+]1CC)C(C)=O.[Cl-] [Compound 63, 2-(N-Acetyl-N-((2-(2-(heptadecylcarbamoyloxy)ethylthio)ethoxy)carbonyl)aminomethyl)-1-ethylpyridinium chloride] | 0.018 | – | 0.012
CCCCCCCCCCCCCCCCOCCSCCOC(=O)N(Cc1cccc[n+]1CC)C(C)=O.[I-] [Compound 66, 2-(N-Acetyl-N-((2-(2-hexadecyloxyethylthio)ethoxy)carbonyl)aminomethyl)-1-ethylpyridinium iodide] | 0.014 | 0.0044 | –
CCCCCCCCCCCCCCCCCCOCCSCCOC(=O)N(Cc1cccc[n+]1CC)C(C)=O [Compound 69, 2-(N-Acetyl-N-((2-(2-octadecyloxyethylthio)ethoxy)carbonyl)aminomethyl)-1-ethylpyridinium idodide] | 0.016 | 0.015 | –
